Test results as given in ChEMBL document CHEMBL4364317, “2-O-(2-chlorobenzoyl) maslinic acid triggers apoptosis in A2780 human ovarian carcinoma cells” (Eur J Med Chem, 2019).
Active and inactive are the calls of the source. The calls are words filed in the database; no cut-off is given here.

Legend:
HT-29 = assay: Anticancer activity against human HT-29 cells measured after 96 hrs by sulforhodamine B assay; format: functional, cell-based; conditions: HT-29, 96 h
MCF7 = assay: Anticancer activity against human MCF7 cells measured after 96 hrs by sulforhodamine B assay; format: functional, cell-based; conditions: MCF7, 96 h
A549 = assay: Anticancer activity against human A549 cells measured after 96 hrs by sulforhodamine B assay; format: functional, cell-based; conditions: A549, 96 h
NIH3T3 = assay: Cytotoxicity against mouse NIH/3T3 cells measured after 96 hrs by sulforhodamine B assay; format: cell-based; conditions: NIH3T3, 96 h
A253 cell line = assay: Anticancer activity against human A253 cells measured after 96 hrs by sulforhodamine B assay; format: functional, cell-based; conditions: A253, 96 h
A2780 [1] = assay: Anticancer activity against human A2780 cells measured after 96 hrs by sulforhodamine B assay; format: functional, cell-based; conditions: A2780, 96 h
8505C = assay: Anticancer activity against human 8505C cells measured after 96 hrs by sulforhodamine B assay; format: functional, cell-based
518A2 = assay: Anticancer activity against human 518A2 cells measured after 96 hrs by sulforhodamine B assay; format: functional, cell-based; conditions: 518A2, 96 h
DLD-1 = assay: Anticancer activity against human DLD1 cells measured after 96 hrs by sulforhodamine B assay; format: functional, cell-based; conditions: DLD-1, 96 h
SW-1736 = assay: Anticancer activity against human SW1736 cells measured after 96 hrs by sulforhodamine B assay; format: functional, cell-based; conditions: SW-1736, 96 h
A2780 [2] = assay: Induction of necrosis in human A2780 cells at 30 uM measured for 72 hrs by acridine orange/propidium iodide staining based fluorescence microscopic analysis; format: functional, cell-based
A2780 [3] = assay: Induction of apoptosis in human A2780 cells assessed as membrane blebbing at 30 uM measured for 72 hrs by acridine orange/propidium iodide staining based fluorescence microscopic analysis; format: functional, cell-based
A2780 [4] = assay: Induction of apoptosis in human A2780 cells assessed as […] cell death at 30 uM measured after 24 to 72 hrs by annexin v flow cytometry analysis; format: functional, cell-based
A2780 [5] = assay: Induction of apoptosis in human A2780 cells assessed as loss of cell membrane integrity at 30 uM measured for 72 hrs by acridine orange/propidium iodide staining based fluorescence microscopic analysis; format: functional
A2780 [6] = assay: Induction of necrosis in human A2780 cells at 15 uM measured for 72 hrs by acridine orange/propidium iodide staining based fluorescence microscopic analysis; format: functional, cell-based
A2780 [7] = assay: Induction of apoptosis in human A2780 cells assessed as loss of cell membrane integrity at 15 uM measured for 72 hrs by acridine orange/propidium iodide staining based fluorescence microscopic analysis; format: functional
A2780 [8] = assay: Induction of apoptosis in human A2780 cells assessed as membrane blebbing at 15 uM measured for 72 hrs by acridine orange/propidium iodide staining based fluorescence microscopic analysis; format: functional, cell-based
A2780 [9] = assay: Induction of apoptosis in human A2780 cells assessed as […] cell death at 15 uM measured after 24 to 72 hrs by annexin v flow cytometry analysis; format: functional, cell-based

SMILES | EC50 (HT-29) [µM] | EC50 (MCF7) [µM] | EC50 (A549) [µM] | EC50 (A253 cell line) [µM] | EC50 (A2780 [1]) [µM] | EC50 (8505C) [µM] | EC50 (518A2) [µM] | EC50 (DLD-1) [µM] | EC50 (SW-1736) [µM] | EC50 (NIH3T3) [µM] | Activity (A2780 [2]) | Activity (A2780 [3]) | Activity (A2780 [4]) | Activity (A2780 [5]) | Activity (A2780 [6]) | Activity (A2780 [7]) | Activity (A2780 [8]) | Activity (A2780 [9])
CC(=O)O[C@@H]1C[C@]2(C)[C@H]3CC=C4[C@@H]5CC(C)(C)CC[C@]5(C(=O)O)CC[C@@]4(C)[C@]3(C)CC[C@H]2C(C)(C)[C@H]1OC(C)=O | 8.5 | 8.5 | 4.2 | 7.7 | 17.3 | 5.7 | 14.6 | 17 | – | 10.4 | – | – | – | – | – | – | – | –
CC1(C)CC[C@]2(C(=O)O)CC[C@]3(C)C(=CC[C@@H]4[C@@]5(C)C[C@@H](OC(=O)c6ccccc6)[C@H](OC(=O)c6ccccc6)C(C)(C)[C@@H]5CC[C@]43C)[C@@H]2C1 | 16.5 | – | 17.4 | 12.7 | 11.2 | 16.4 | – | 17.9 | 19.4 | 23.2 | – | – | – | – | – | – | – | –
CC(=O)O[C@@H]1C[C@]2(C)[C@H]3CC=C4[C@@H]5CC(C)(C)CC[C@]5(C(=O)O)CC[C@@]4(C)[C@]3(C)CC[C@H]2C(C)(C)[C@H]1O | 10.7 | 11.5 | 4.3 | 11 | 19.9 | 8.8 | 21 | 23.1 | – | 15.4 | – | – | – | – | – | – | – | –
CC1(C)CC[C@]2(C(=O)O)CC[C@]3(C)C(=CC[C@@H]4[C@@]5(C)C[C@@H](OC(=O)c6cccnc6Cl)[C@H](OC(=O)c6cccnc6Cl)C(C)(C)[C@@H]5CC[C@]43C)[C@@H]2C1 | > 30 | > 30 | > 30 | > 30 | 29.3 | > 30 | 17.1 | > 30 | > 30 | > 30 | – | – | – | – | – | – | – | –
CC1(C)CC[C@]2(C(=O)O)CC[C@]3(C)C(=CC[C@@H]4[C@@]5(C)C[C@@H](O)[C@H](OC(=O)c6cc([N+](=O)[O-])cc([N+](=O)[O-])c6)C(C)(C)[C@@H]5CC[C@]43C)[C@@H]2C1 | 9.4 | 4.2 | – | 8.3 | 5.5 | 7.5 | – | 7.2 | 12.8 | 15.7 | – | – | – | – | – | – | – | –
CC1(C)CC[C@]2(C(=O)O)CC[C@]3(C)C(=CC[C@@H]4[C@@]5(C)C[C@@H](OC(=O)c6cc([N+](=O)[O-])cc([N+](=O)[O-])c6)[C@H](O)C(C)(C)[C@@H]5CC[C@]43C)[C@@H]2C1 | 11.1 | 5.1 | 6.1 | 9.7 | 6.2 | 8.1 | 12.1 | 7.1 | 14.8 | 17.4 | – | – | – | – | – | – | – | –

Now from value to molecule, other results behind:

EC50 (HT-29) [µM] | EC50 (MCF7) [µM] | EC50 (A549) [µM] | EC50 (A253 cell line) [µM] | EC50 (A2780 [1]) [µM] | EC50 (8505C) [µM] | EC50 (518A2) [µM] | EC50 (DLD-1) [µM] | EC50 (SW-1736) [µM] | SMILES | EC50 (NIH3T3) [µM] | Activity (A2780 [2]) | Activity (A2780 [3]) | Activity (A2780 [4]) | Activity (A2780 [5]) | Activity (A2780 [6]) | Activity (A2780 [7]) | Activity (A2780 [8]) | Activity (A2780 [9])
12.7 | – | 9.1 | 9 | 6.4 | 11.2 | 15.5 | 10.3 | 18.2 | CC1(C)CC[C@]2(C(=O)O)CC[C@]3(C)C(=CC[C@@H]4[C@@]5(C)C[C@@H](OC(=O)c6ccccc6)[C@H](O)C(C)(C)[C@@H]5CC[C@]43C)[C@@H]2C1 | 15 | – | – | – | – | – | – | – | –
6.3 | 7.1 | 9.4 | 12.9 | 6 | 12.6 | 11.6 | 10.7 | 16.9 | CC1(C)CC[C@]2(C(=O)O)CC[C@]3(C)C(=CC[C@@H]4[C@@]5(C)C[C@@H](OC(=O)c6ccccc6F)[C@H](O)C(C)(C)[C@@H]5CC[C@]43C)[C@@H]2C1 | 16.9 | – | – | – | – | – | – | – | –
– | 3.3 | 5.8 | 5.4 | – | 6.9 | 6.8 | 5.2 | 12.9 | CC1(C)CC[C@]2(C(=O)O)CC[C@]3(C)C(=CC[C@@H]4[C@@]5(C)C[C@@H](O)[C@H](OC(=O)c6ccccc6Cl)C(C)(C)[C@@H]5CC[C@]43C)[C@@H]2C1 | 7.1 | – | – | – | – | – | – | – | –
– | 24.4 | – | – | – | – | – | – | – | CC1(C)CC[C@]2(C(=O)O)CC[C@]3(C)C(=CC[C@@H]4[C@@]5(C)C[C@@H](O)[C@H](O)C(C)(C)[C@@H]5CC[C@]43C)[C@@H]2C1 [MASLINIC ACID] | 16.6 | Active | Active | Active | Active | – | – | – | –
8.5 | 5.6 | 7.5 | 10.4 | 4.7 | 8.9 | 8.3 | 7.6 | 13.9 | CC1(C)CC[C@]2(C(=O)O)CC[C@]3(C)C(=CC[C@@H]4[C@@]5(C)C[C@@H](OC(=O)c6ccccc6Cl)[C@H](O)C(C)(C)[C@@H]5CC[C@]43C)[C@@H]2C1 | 10.4 | – | – | – | – | Active | Active | Active | Active
– | 6.7 | 9.8 | 6.6 | 6 | 12.6 | 11.8 | 10.1 | 21.2 | CC1(C)CC[C@]2(C(=O)O)CC[C@]3(C)C(=CC[C@@H]4[C@@]5(C)C[C@@H](O)[C@H](OC(=O)c6ccccc6F)C(C)(C)[C@@H]5CC[C@]43C)[C@@H]2C1 | 12.5 | – | – | – | – | – | – | – | –
